Experimental data published in PMC6426897, “Inhibition of NLRP3 inflammasome activation by cell-permeable stapled peptides” (Scientific Reports, 2019).
Where a SMILES comes first, the peptide text is derived from it. Bridges are numbered along the chain shown (N, C = ends). [ ]: non-standard residue; d: D form. R8 = C=CCCCCCC[C@@](C)(N)C(=O)O; S5 = C=CCCC[C@](C)(N)C(=O)O

Tests used:
NLRP3 inflammasome = experiment: IL-1β release from THP-1 cells stimulated with LPS and nigericin (ELISA); assay type: cell-based, human; settings: 10, 50 and 100 μM peptide for 4 hours, then LPS 4 hours, nigericin 1 hour; Fig. 6
Method: We next examined whether the ASC peptides could inhibit IL-1β production, which is regulated by the inflammasome. We used THP-1 human monocytic cells to study inflammasome activation as they express high levels of NLRP3, ASC, and pro-casp-1. THP-1 cells were incubated with ms_ASC^PYD #1–6 or ms_NLRP3^PYD peptides at increasing concentrations for 4 hours and were then stimulated with LPS for 4 hours, followed by the NLRP3 activator nigericin for 1 hour. IL-1β levels were measured in the culture supernatant. […] The ms_ASC^PYD peptides reduced IL-1β production from THP-1 cells in response to LPS/nigericin stimulation to variable degrees (Fig. 6A). […] We decided to continue investigating in detail the inhibitory effects of ms_ASC^PYD #5 and #6 peptides, as their estimated binding energies matched well with the experimental data of suppression of ASC-dependent IL-1 release in a dose-dependent manner. Since ms_ASCPYD #6 is the shorter version of ms_ASCPYD #5, this selection also enabled us to verify the effect of varying peptide lengths.
Human monocytic THP-1 cells (1 × 10^7 cells) were plated in a 10-cm tissue culture dish and treated with PMA (200 nM) overnight to differentiate monocytic cells into macrophages. Cells were then washed and allowed to rest in fresh media for another day. For stimulation, differentiated THP-1 cells were trypsinized and seeded in 96-well plates (2 × 10^6/well). Peripheral blood mononuclear cells were isolated by Ficoll-Hypaque density gradient centrifugation from buffy coats obtained from anonymous donors provided by the National University Hospital Blood Bank, Singapore. Isolation of monocytes was performed using negative selection with the Monocyte Isolation Kit II (Miltenyi Biotech), following the manufacturer’s instructions. Monocytes were plated in tissue culture non-treated 96-well plates (2.5 × 10^5/well) in 250 µl RPMI 1640-Glutamax media supplemented with 3% human AB serum (Gemini Bio Products).
THP-1 cells and monocytes were incubated with NLRP3^PYD (12.5–25–50 μM), ASC^PYD #5 (12.5-25-50-100 μM) or ASC^PYD #6 (12.5-25-50-100 μM) for the indicated durations. Cells were then washed once with PBS and primed with E. coli LPS (0.1 μg/ml, Invivogen) for 4 h followed by stimulation with nigericin (10 μM) for an additional 1 h or ATP ([…]) for an additional 30 min. The cell culture supernatants were then collected and centrifuged at 500 × g to remove cells and cellular debris.
IL-1β levels were measured using antibodies from eBioscience (cat. #14-7018-81 and #13-7016-85), following the manufacturer’s instructions. IL-18 levels were measured using antibodies from MBL (D044-3 and D045-6) following the manufacturer’s instructions. The absorbance was measured at 450 nm with the reference wavelength at 570 nm, using an M200 Infinite plate reader (Tecan).

[1] = Circular dichroism, percentage of helicity (K2D3); assay type: physicochemical; settings: CD, room temperature, water, 100 μM peptide; estimated with K2D3
Description: The conformation of helix 2 (^16TAEELKKFKLKLLSV^30) bound to ASC^PYD (Fig. 1A) was used as the starting structure for the peptide-protein interaction modeling. Following I,I + 7 stapling scheme, we inserted a hydrocarbon staple across positions 5 and 12 along the peptide and then introduced mutations to produce a set of stapled peptides. Two variants of the template peptide were designed – a short version containing 13 residues (ms_ASC^PYD #6) and a long version containing 15 residues (ms_ASC^PYD #1–5) with two additional residues at the N-terminus (Table 1). These two additional residues were inserted to increase the length of the peptide, thus potentially enabling sufficient conformational flexibility for the region involving the critical Arg3 to remain helical. A similar approach was taken to introduce the staple in the ms_NLRP3^PYD peptide. As determined from Circular Dichroism (CD) spectra, inserting the I,I + 7 staple had the intended effect of increasing helicity of the peptides (Fig. 3). […] Percentage of helicity was much higher for ASC^PYD stapled peptides #5 and #6, 95% and 70% respectively at 100 μM peptide concentration. Percentage of helicity for the peptides were estimated from the web server K2D3[36] using CD data.
Figure 3 Circular dichroism (CD) spectra of (A) NLRP3^PYD and (B) ASC^PYD peptides to measure secondary structures.

ASC PYD (Homo sapiens) = ASC PYD (Homo sapiens) (UniProt Q9ULZ3); experiment: NMR titration; settings: cited from earlier work

Compound | IL-1β release (in words) (NLRP3 inflammasome) | Percentage of helicity [1] | Kd (ASC PYD (Homo sapiens)) [µM]
CC(=O)N[C@H](C(=O)N[C@@H](C)C(=O)N[C@@H](CCCNC(=N)N)C(=O)N[C@@H](CCC(=O)O)C(=O)N[C@]1(C)CCCCCCC=CCCC[C@@](C)(C(=O)N[C@@H](CCC(=O)O)C(=O)N[C@@H](CO)C(=O)N[C@H](C(N)=O)C(C)C)NC(=O)[C@H](CCCCN)NC(=O)[C@H](Cc2ccccc2)NC(=O)[C@H](CCCCN)NC(=O)[C@H](C)NC(=O)[C@H](CCCCN)NC(=O)[C@H](CCCCN)NC1=O)[C@@H](C)O [ms_ASC^PYD #2] (Ac-TARE[R8]KKAKFK[S5]ESV-NH2; staple 5-12) | inability to suppress IL-1β release | – | –
CC(=O)N[C@H](C(=O)N[C@@H](CC(=O)O)C(=O)N[C@]1(C)CCCCCCC=CCCC[C@@](C)(C(=O)N[C@@H](CCC(=O)O)C(=O)N[C@@H](CC(=O)O)C(=O)N[C@@H](Cc2ccc(O)cc2)C(N)=O)NC(=O)[C@H](Cc2c[nH]cn2)NC(=O)[C@H](Cc2ccccc2)NC(=O)[C@H](CCCCN)NC(=O)[C@H](C)NC(=O)[C@H](CCCCN)NC(=O)[C@H](CCCCN)NC1=O)C(C)C [ms_NLRP3^PYD] (Ac-VD[R8]KKAKFH[S5]EDY-NH2; staple 3-10) | produced less IL-1β in a dose-dependent manner | 48% | –
ASC PYD (from UniProt Q9ULZ3) | – | – | 65
Ac-VDLKKFKMHLEDY-NH2 [wt_NLRP3^PYD] | – | no helicity | –
